Measurements as given in BindingDB's records for doi:10.1038/nchembio.155 (University of California San Francisco, 2009).

Biological target: Beta-lactamase (Escherichia coli (strain K12), UniProt P00811)
Experiment: Beta-lactamase AmpC Inhibition Assay
Details: pH 7
Description: Class C Beta-lactamase AmpC inhibition assay

Chain of Beta-lactamase (P00811 whole entry): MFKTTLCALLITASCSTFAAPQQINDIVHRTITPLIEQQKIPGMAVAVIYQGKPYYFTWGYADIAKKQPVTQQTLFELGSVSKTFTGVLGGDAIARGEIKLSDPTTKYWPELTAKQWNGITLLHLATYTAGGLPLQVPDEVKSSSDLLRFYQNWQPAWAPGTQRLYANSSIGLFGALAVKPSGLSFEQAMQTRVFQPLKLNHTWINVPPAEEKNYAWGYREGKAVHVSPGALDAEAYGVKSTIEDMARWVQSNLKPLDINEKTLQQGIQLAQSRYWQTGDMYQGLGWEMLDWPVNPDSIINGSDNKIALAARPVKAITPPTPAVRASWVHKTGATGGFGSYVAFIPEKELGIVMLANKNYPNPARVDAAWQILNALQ

Row | Structure (SMILES) | Ki [µM]
1 | O=C1c2ccccc2C(=O)N1CCc1nnn[nH]1 [CID7129233] | 3300
2 | CCc1c(C)[nH]n(-c2nnn[nH]2)c1=O [CID7357365] | 3100
3 | O=C(Nc1cccc(-c2nnn[nH]2)c1)c1cccc(F)c1 [CID8067740] | 2800
4 | C[C@@H](C(=O)O)N1C(=O)C2C3CCC(C3)C2C1=O (stereo partly specified) [CID25181259] | 2200
5 | O=C(O)CN1C(=O)O[C@@H](c2ccccc2)C1=O [CID25181261] | 3500
6 | O=c1c2c3c(sc2ncn1Cc1nn[nH]n1)CCCC3 [CID 7263523] | 1500
